Activity calls are given as the source filed them. The rule behind the calls is not given here.
Key:
PANC-1 [1] = test: Cell cycle arrest in human PANC1 cells assessed as accumulation at G1 phase at 10 uM after 24 hrs by RNAase/propidium iodide staining-based flow cytometric analysis (reference value: 67.93 to 75.87%); format: functional
PANC-1 [2] = test: Antiproliferative activity against human PANC1 cells after 24 hrs by CCK8 assay; format: functional, cell-based; settings: PANC-1, 24 h
HCC1806 = test: Antiproliferative activity against human HCC1806 cells after 24 hrs by CCK8 assay; format: functional, cell-based; settings: HCC1806, 24 h
HepG2 = test: Antiproliferative activity against human HepG2 cells after 24 hrs by CCK8 assay; format: functional, cell-based; settings: HepG2, 24 h
BEAS-2B = test: Antiproliferative activity against human BEAS2B cells after 24 hrs by CCK8 assay; format: functional, cell-based
HT-29 = test: Antiproliferative activity against human HT-29 cells after 24 hrs by CCK8 assay; format: functional, cell-based; settings: HT-29, 24 h
PANC-1 [3] = test: Induction of apoptosis in human PANC1 cells assessed as nuclear chromatin condensation at 5 uM after 24 hrs by Hoechst 33258 staining based fluorescence microscopic analysis; format: functional, cell-based
PANC-1 [4] = test: Induction of apoptosis in human PANC1 cells assessed as nuclear shrinkage at 5 uM after 24 hrs by Hoechst 33258 staining based fluorescence microscopic analysis; format: functional, cell-based
PANC-1 [5] = test: Induction of apoptosis in human PANC1 cells assessed as nuclear fragmentation at 5 uM after 24 hrs by Hoechst 33258 staining based fluorescence microscopic analysis; format: functional, cell-based
PANC-1 [6] = test: Induction of apoptosis in human PANC1 cells assessed as nuclear chromatin condensation at 25 uM after 24 hrs by Hoechst 33258 staining based fluorescence microscopic analysis; format: functional, cell-based
PANC-1 [7] = test: Induction of apoptosis in human PANC1 cells assessed as nuclear shrinkage at 25 uM after 24 hrs by Hoechst 33258 staining based fluorescence microscopic analysis; format: functional, cell-based
PANC-1 [8] = test: Induction of apoptosis in human PANC1 cells assessed as nuclear fragmentation at 25 uM after 24 hrs by Hoechst 33258 staining based fluorescence microscopic analysis; format: functional, cell-based
PANC-1 [9] = test: Cell cycle arrest in human PANC1 cells assessed as accumulation at G1 phase at 5 uM after 24 hrs by RNAase/propidium iodide staining-based flow cytometric analysis (reference value: 67.93 to 75.87%); format: functional
PANC-1 [10] = test: Cell cycle arrest in human PANC1 cells assessed as accumulation at G2/M phase at 5 uM after 24 hrs by RNAase/propidium iodide staining-based flow cytometric analysis (reference value: 6.83 to 11.82%); format: functional
PANC-1 [11] = test: Cell cycle arrest in human PANC1 cells assessed as accumulation at S phase at 5 uM after 24 hrs by RNAase/propidium iodide staining-based flow cytometric analysis (reference value: 11.66 to 19.02%); format: functional
PANC-1 [12] = test: Cell cycle arrest in human PANC1 cells assessed as accumulation at G2/M phase at 10 uM after 24 hrs by RNAase/propidium iodide staining-based flow cytometric analysis (reference value: 6.83 to 11.82%); format: functional
PANC-1 [13] = test: Cell cycle arrest in human PANC1 cells assessed as accumulation at S phase at 10 uM after 24 hrs by RNAase/propidium iodide staining-based flow cytometric analysis (reference value: 11.66 to 19.02%); format: functional
PANC-1 [14] = test: Cell cycle arrest in human PANC1 cells assessed as accumulation at G1 phase at 15 uM after 24 hrs by RNAase/propidium iodide staining-based flow cytometric analysis (reference value: 67.93 to 75.87%); format: functional
PANC-1 [15] = test: Cell cycle arrest in human PANC1 cells assessed as accumulation at G2/M phase at 15 uM after 24 hrs by RNAase/propidium iodide staining-based flow cytometric analysis (reference value: 6.83 to 11.82%); format: functional
PANC-1 [16] = test: Cell cycle arrest in human PANC1 cells assessed as accumulation at S phase at 15 uM after 24 hrs by RNAase/propidium iodide staining-based flow cytometric analysis (reference value: 11.66 to 19.02%); format: functional
PANC-1 [17] = test: Cell cycle arrest in human PANC1 cells assessed as accumulation at G1 phase at 25 uM after 24 hrs by RNAase/propidium iodide staining-based flow cytometric analysis (reference value: 67.93 to 75.87%); format: functional
PANC-1 [18] = test: Cell cycle arrest in human PANC1 cells assessed as accumulation at G2/M phase at 25 uM after 24 hrs by RNAase/propidium iodide staining-based flow cytometric analysis (reference value: 6.83 to 11.82%); format: functional
PANC-1 [19] = test: Cell cycle arrest in human PANC1 cells assessed as accumulation at S phase at 25 uM after 24 hrs by RNAase/propidium iodide staining-based flow cytometric analysis (reference value: 11.66 to 19.02%); format: functional
PANC-1 [20] = test: Induction of apoptosis in human PANC1 cells assessed as necrotic cells at 5 uM after 24 hrs by FITC-Annexin V/propidium iodide staining-based flow cytometric analysis (reference value: 0.7 to 1.4%); format: functional
PANC-1 [21] = test: Induction of apoptosis in human PANC1 cells assessed as late apoptotic cells at 5 uM after 24 hrs by FITC-Annexin V/propidium iodide staining-based flow cytometric analysis (reference value: 0.0 to 0.7%); format: functional
PANC-1 [22] = test: Induction of apoptosis in human PANC1 cells assessed as early apoptotic cells at 5 uM after 24 hrs by FITC-Annexin V/propidium iodide staining-based flow cytometric analysis (reference value: 0.5 to 3.2%); format: functional
PANC-1 [23] = test: Induction of apoptosis in human PANC1 cells assessed as viable cells at 5 uM after 24 hrs by FITC-Annexin V/propidium iodide staining-based flow cytometric analysis (reference value: 94.7 to 98.7%); format: functional; settings: PANC-1, 24 h, read-out: Activity
PANC-1 [24] = test: Induction of apoptosis in human PANC1 cells assessed as necrotic cells at 10 uM after 24 hrs by FITC-Annexin V/propidium iodide staining-based flow cytometric analysis (reference value: 0.7 to 1.4%); format: functional
PANC-1 [25] = test: Induction of apoptosis in human PANC1 cells assessed as late apoptotic cells at 10 uM after 24 hrs by FITC-Annexin V/propidium iodide staining-based flow cytometric analysis (reference value: 0.0 to 0.7%); format: functional
PANC-1 [26] = test: Induction of apoptosis in human PANC1 cells assessed as early apoptotic cells at 10 uM after 24 hrs by FITC-Annexin V/propidium iodide staining-based flow cytometric analysis (reference value: 0.5 to 3.2%); format: functional
PANC-1 [27] = test: Induction of apoptosis in human PANC1 cells assessed as viable cells at 10 uM after 24 hrs by FITC-Annexin V/propidium iodide staining-based flow cytometric analysis (reference value: 94.7 to 98.7%); format: functional; settings: PANC-1, 24 h, read-out: Activity
PANC-1 [28] = test: Induction of apoptosis in human PANC1 cells assessed as necrotic cells at 15 uM after 24 hrs by FITC-Annexin V/propidium iodide staining-based flow cytometric analysis (reference value: 0.7 to 1.4%); format: functional
PANC-1 [29] = test: Induction of apoptosis in human PANC1 cells assessed as late apoptotic cells at 15 uM after 24 hrs by FITC-Annexin V/propidium iodide staining-based flow cytometric analysis (reference value: 0.0 to 0.7%); format: functional
PANC-1 [30] = test: Induction of apoptosis in human PANC1 cells assessed as early apoptotic cells at 15 uM after 24 hrs by FITC-Annexin V/propidium iodide staining-based flow cytometric analysis (reference value: 0.5 to 3.2%); format: functional
PANC-1 [31] = test: Induction of apoptosis in human PANC1 cells assessed as viable cells at 15 uM after 24 hrs by FITC-Annexin V/propidium iodide staining-based flow cytometric analysis (reference value: 94.7 to 98.7%); format: functional; settings: PANC-1, 24 h, read-out: Activity
PANC-1 [32] = test: Induction of apoptosis in human PANC1 cells assessed as necrotic cells at 25 uM after 24 hrs by FITC-Annexin V/propidium iodide staining-based flow cytometric analysis (reference value: 0.7 to 1.4%); format: functional
PANC-1 [33] = test: Induction of apoptosis in human PANC1 cells assessed as late apoptotic cells at 25 uM after 24 hrs by FITC-Annexin V/propidium iodide staining-based flow cytometric analysis (reference value: 0.0 to 0.7%); format: functional
PANC-1 [34] = test: Induction of apoptosis in human PANC1 cells assessed as early apoptotic cells at 25 uM after 24 hrs by FITC-Annexin V/propidium iodide staining-based flow cytometric analysis (reference value: 0.5 to 3.2%); format: functional
PANC-1 [35] = test: Induction of apoptosis in human PANC1 cells assessed as viable cells at 25 uM after 24 hrs by FITC-Annexin V/propidium iodide staining-based flow cytometric analysis (reference value: 94.7 to 98.7%); format: functional; settings: PANC-1, 24 h, read-out: Activity
PANC-1 [36] = test: Induction of apoptosis in human PANC1 cells after 24 hrs by FITC-Annexin V/propidium iodide staining-based flow cytometric analysis; format: functional, cell-based
PANC-1 [37] = test: Induction of apoptosis in human PANC1 cells assessed as nuclear chromatin condensation at 10 uM after 24 hrs by Hoechst 33258 staining based fluorescence microscopic analysis; format: functional, cell-based
PANC-1 [38] = test: Induction of apoptosis in human PANC1 cells assessed as nuclear shrinkage at 10 uM after 24 hrs by Hoechst 33258 staining based fluorescence microscopic analysis; format: functional, cell-based
PANC-1 [39] = test: Induction of apoptosis in human PANC1 cells assessed as nuclear fragmentation at 10 uM after 24 hrs by Hoechst 33258 staining based fluorescence microscopic analysis; format: functional, cell-based

Structure (SMILES)	Activity (PANC-1 [1])	IC50 (PANC-1 [2])	IC50 (HCC1806)	IC50 (HepG2)	IC50 (BEAS-2B)	IC50 (HT-29)	Activity (PANC-1 [6])	Activity (PANC-1 [7])	Activity (PANC-1 [8])	Activity (PANC-1 [9])	Activity (PANC-1 [10])	Activity (PANC-1 [11])	Activity (PANC-1 [12])	Activity (PANC-1 [13])	Activity (PANC-1 [14])	Activity (PANC-1 [15])	Activity (PANC-1 [16])	Activity (PANC-1 [17])	Activity (PANC-1 [18])	Activity (PANC-1 [19])	other results
COC(=O)[C@]1(Cc2ccc(O)c(CC=C(C)C)c2)OC(=O)C(O)=C1c1ccc(O)c(CC=C(C)C)c1	45.36%	5.3 µM	17.6 µM	9 µM	> 20 µM	> 20 µM	Active	Active	Active	49.89%	14.43%	35.11%	10.09%	38.96%	20.44%	38.12%	38.47%	20.46%	35.78%	41.26%	Activity (PANC-1 [3]): Active; Activity (PANC-1 [4]): Active; Activity (PANC-1 [5]): Active; Activity (PANC-1 [20]): 0.2%; Activity (PANC-1 [21]): 0.3%; Activity (PANC-1 [22]): 4.8%; viability at 5 µM (PANC-1 [23]): 94.7%; Activity (PANC-1 [24]): 1.6%; Activity (PANC-1 [25]): 1.2%; Activity (PANC-1 [26]): 9.3%; viability at 10 µM (PANC-1 [27]): 87.9%; Activity (PANC-1 [28]): 1.6%; Activity (PANC-1 [29]): 0.7%; Activity (PANC-1 [30]): 48.5%; viability at 15 µM (PANC-1 [31]): 49.1%; Activity (PANC-1 [32]): 1.3%; Activity (PANC-1 [33]): 11.6%; Activity (PANC-1 [34]): 42.7%; viability at 25 µM (PANC-1 [35]): 44.5%; Activity (PANC-1 [36]): Dose-dependent effect
COC(=O)[C@]1(Cc2ccc(O)c(CC=C(C)C)c2)OC(=O)C(O)=C1c1ccccc1	56.57%	9.4 µM	18.7 µM	12.9 µM	> 20 µM	> 20 µM	Active	Active	Active	72.84%	7.77%	10.92%	8.14%	31.28%	52.41%	7.7%	32.92%	43.95%	10.63%	42.63%	Activity (PANC-1 [37]): Active; Activity (PANC-1 [38]): Active; Activity (PANC-1 [39]): Active; Activity (PANC-1 [20]): 1.3%; Activity (PANC-1 [21]): 0.8%; Activity (PANC-1 [22]): 6.8%; viability at 5 µM (PANC-1 [23]): 91.1%; Activity (PANC-1 [24]): 1.2%; Activity (PANC-1 [25]): 1.4%; Activity (PANC-1 [26]): 13.6%; viability at 10 µM (PANC-1 [27]): 83.9%; Activity (PANC-1 [28]): 0.9%; Activity (PANC-1 [29]): 1%; Activity (PANC-1 [30]): 14.9%; viability at 15 µM (PANC-1 [31]): 83.2%; Activity (PANC-1 [32]): 2.3%; Activity (PANC-1 [33]): 3%; Activity (PANC-1 [34]): 21.1%; viability at 25 µM (PANC-1 [35]): 73.6%; Activity (PANC-1 [36]): Dose-dependent effect
